Patent publication US6376478B1, “Pharmaceutical compositions and methods for treating anxiety, anxiety disorders and memory impairment using naaladase inhibitors” (Guilford Pharmaceuticals Inc., priority 1999, dated 2002)
pKi: −log10 of the molar value. Several values for one entry are separate records, joined by “and”; a condition that tells them apart may be missing. Identical values can stand only once. Marks after values point to notes of the source that are not given here.

Legend:
NAALADase = NAALADase (Homo sapiens, UniProt Q04609); assay: In vitro inhibition of NAALADase activity; type: biochemical
[1] = Passive avoidance anxiolytic model (shuttlebox, latency to cross); type: in vivo; details: for performance compared with flurazepam in passive avoidance: in some experiments
Source text: The passive avoidance test consists of an acquisition and a retention trial. On the day prior to dosing, the animal is placed into the shuttlebox and allowed to acclimate. A conditioned stimulus (light) is presented for approximately 100 seconds. When the animal crosses to the dark compartment, a mild (0.5 mA) footshock is presented until the animal returns to the lighted compartment or for approximately 10 seconds. Animals failing to cross during acquisition trial is randomly replaced. The day following acquisition, animals are administered test article, saline or flurazepam 10 minutes prior to being placed in the shuttlebox and tested for retention as described above. Latency to cross (in seconds) is recorded.

[2] = Flurazepam 3 mg/kg IP group, acquisition is on the day prior to dosing
[3] = Flurazepam 5 mg/kg IP group, Table I second study, day prior to dosing
[4] = Flurazepam 5 mg/kg IP, Table I second study
[5] = Table II, Flurazepam 5 mg/kg IP

Chain of NAALADase (Q04609 whole entry): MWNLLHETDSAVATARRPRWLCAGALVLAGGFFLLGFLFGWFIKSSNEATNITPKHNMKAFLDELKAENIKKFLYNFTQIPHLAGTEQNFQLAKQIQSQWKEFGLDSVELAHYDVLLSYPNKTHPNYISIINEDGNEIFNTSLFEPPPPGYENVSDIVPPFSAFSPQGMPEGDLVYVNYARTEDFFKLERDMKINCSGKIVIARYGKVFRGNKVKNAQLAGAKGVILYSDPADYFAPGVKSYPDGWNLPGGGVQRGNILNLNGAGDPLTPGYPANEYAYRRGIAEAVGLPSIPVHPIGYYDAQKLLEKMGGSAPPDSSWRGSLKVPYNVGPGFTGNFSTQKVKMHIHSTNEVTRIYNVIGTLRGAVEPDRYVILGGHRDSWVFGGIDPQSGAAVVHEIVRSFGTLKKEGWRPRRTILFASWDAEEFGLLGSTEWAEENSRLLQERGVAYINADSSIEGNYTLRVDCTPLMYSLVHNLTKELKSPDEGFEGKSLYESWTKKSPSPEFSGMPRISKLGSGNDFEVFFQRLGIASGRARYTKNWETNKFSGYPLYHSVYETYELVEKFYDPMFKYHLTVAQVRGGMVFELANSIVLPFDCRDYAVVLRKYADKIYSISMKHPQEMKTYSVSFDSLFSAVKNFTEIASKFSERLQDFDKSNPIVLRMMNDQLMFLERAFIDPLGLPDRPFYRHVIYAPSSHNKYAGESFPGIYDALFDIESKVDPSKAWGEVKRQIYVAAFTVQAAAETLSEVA

Compound | pKi (NAALADase) | further results
COc1ccc(NCP(=O)(O)CC(CCC(=O)O)C(=O)O)cc1 (stereo not shown) | 8.70 | –
O=C(O)CCC(CP(=O)(O)CN(Cc1ccccc1)Cc1ccccc1)C(=O)O (stereo not shown) | 6.76 | –
O=C(O)CCC(CP(=O)(O)O)C(=O)O (stereo not shown) [Compound 3, 2-(phosphonomethyl)pentanedioic acid] | – | Latency to Cross, Retention Trial, MEAN ([1]; Compound 3 100 mg/kg IP): 43.0 s; Latency to Cross, Acquisition Trial, MEAN ([1]; Compound 3 100 mg/kg IP group, day prior to dosing): 7.8 s; Latency to Cross, Acquisition Trial, individual animals ([1]; Compound 3 100 mg/kg IP group, day prior to dosing, 100 mg/kg): 11.8 s and 11.5 s and 9.2 s and 0.8 s and 0.6 s and 2.9 s and 18.6 s and 9.3 s and 0.2 s and 2.0 s and 5.9 s and 6.1 s and 25.0 s and 2.2 s and 10.5 s; Latency to Cross, Retention Trial, individual animals ([1]; Compound 3 100 mg/kg IP, stimulus about 100 seconds, 100 mg/kg): 100.0 seconds (4×) and 4.6 seconds and 9.9 seconds and 47.4 seconds and 12.9 seconds and 20.6 seconds and 6.6 seconds and 33.0 seconds and 89.8 seconds and 5.2 seconds and 5.9 seconds and 8.5 seconds; anxiolytic properties in passive avoidance ([1]; Example 14): exhibit anxiolytic properties; performance compared with flurazepam in passive avoidance ([1]; Example 14): performed better than the known anxiolytic agent, flurazepam
O=C(O)C(CCc1ccccc1)CP(=O)(O)O (stereo not shown) | 6.70 | –
CCCCP(=O)(O)CC(CCC(=O)O)C(=O)O (stereo not shown) | 6.94 | –
CC(C)(C)OC(=O)CCC(CP(=O)(CC(CCC(=O)O)C(=O)O)OC(C)(C)C)C(=O)OC(C)(C)C (stereo not shown) | 5.37 | –
O=C(O)CCP(=O)(O)O | 6.63 | –
O=C(O)CCC(CP(=O)(O)CNc1ccc(F)cc1)C(=O)O (stereo not shown) | 8.05 | –
CP(=O)(O)CC(CCC(=O)O)C(=O)O (stereo not shown) | 5.96 | –
O=C(O)CCC(CP(=O)(O)CNCc1ccccc1)C(=O)O (stereo not shown) | 7.28 | –
O=C(O)CCC(CP(=O)(O)Cc1ccccc1C(F)(F)F)C(=O)O (stereo not shown) | 7.04 | –
O=C(O)CCC(CCCS)C(=O)O (stereo not shown) [2-(3-sulfanylpropyl)pentanedioic acid] | – | anxiolytic properties in passive avoidance ([1]; Example 15, written in present tense): exhibit anxiolytic properties
O=C(O)CCC(CP(=O)(O)CCC(=O)O)C(=O)O (stereo not shown) [2-[[(2-carboxyethyl)hydroxyphosphinyl]methyl]pentanedioic acid] | 8.70 | –
O=C(O)CCC(CP(=O)(O)CC(CCC(=O)OCc1ccccc1)C(=O)OCc1ccccc1)C(=O)O (stereo not shown) | 7.89 | –
CC(CP(=O)(O)O)C(=O)O (stereo not shown) | 8.70 | –
COC(=O)c1ccc(CP(=O)(O)CC(CCC(=O)O)C(=O)O)cc1 (stereo not shown) | 6.13 | –
CC(CP(=O)(O)CC(CCC(=O)O)C(=O)O)C(=O)O (stereo not shown) | 8.70 | –
O=C(O)CCC(CP(=O)(O)c1ccccc1)C(=O)O (stereo not shown) | 7.44 | –
O=C(O)CCCC(CP(=O)(O)O)C(=O)O (stereo not shown) | 6.73 | –
CC(C)(C)c1ccc(NCP(=O)(O)CC(CCC(=O)O)C(=O)O)cc1 (stereo not shown) | 8.70 | –
O=C(O)CCC(CP(=O)(O)Cc1c(F)c(F)c(F)c(F)c1F)C(=O)O (stereo not shown) [drawing 45] | 7.64 | –
Cc1ccc(CP(=O)(O)CC(CCC(=O)O)C(=O)O)cc1 (stereo not shown) | 7.17 | –
O=C(O)CCC(CP(=O)(O)Cc1ccc(O)cc1)C(=O)O (stereo not shown) | 6.93 | –
O=C(O)CCC(CCSSCCC(CCC(=O)O)C(=O)O)C(=O)O (stereo not shown) [2-[2-[(3,5-dicarboxypentyl)dithio]ethyl]pentanedioic acid] | 4.78 | –
CCN(CC)CCN1C(=O)CN=C(c2ccccc2F)c2cc(Cl)ccc21 [Flurazepam, flurazepam, reference compound] | – | Latency to Cross, Acquisition Trial, MEAN [1, 2]: 10.1 s; Latency to Cross, Acquisition Trial, individual animals [1, 2]: 7.0 s and 9.5 s and 8.8 s and 2.8 s and 19.3 s and 5.4 s and 8.2 s and 28.2 s and 7.1 s and 2.4 s and 16.7 s and 8.4 s and 11.3 s and 6.9 s and 9.1 s; Latency to Cross, Retention Trial, MEAN ([1]; Flurazepam 3 mg/kg IP, 10 minutes before test): 47.5 s; Latency to Cross, Retention Trial, individual animals ([1]; Flurazepam 3 mg/kg IP, 10 minutes before test, stimulus about 100 seconds): 83.3 seconds and 100.0 seconds (4×) and 5.5 seconds and 4.7 seconds and 16.1 seconds and 65.3 seconds and 6.9 seconds and 2.1 seconds and 34.1 seconds and 2.2 seconds and 47.5 seconds and 34.9 seconds; Latency to Cross, Acquisition Trial, MEAN [1, 3]: 8.4 s; Latency to Cross, Acquisition Trial, individual animals [1, 3]: 6.6 s and 39.8 s and 2.7 s and 10.6 s and 0.5 s and 0.1 s and 7.4 s and 4.0 s and 4.9 s and 14.7 s and 10.1 s and 9.5 s and 1.9 s and 12.9 s and 0.7 s; Latency to Cross, Retention Trial, MEAN [1, 4]: 20.8 s; Latency to Cross, Retention Trial, individual animals [1, 4]: 11.2 s and 56.3 s and 10.5 s and 23.9 s and 6.5 s and 6.0 s and 13.4 s and 0.8 s and 21.4 s and 2.9 s and 67.2 s and 19.0 s and 58.3 s and 4.8 s and 9.7 s; Latency to Cross, Mean [1, 5]: 12.9 s; Latency to Cross, individual animals [1, 5]: 4.7 seconds and 9.6 seconds and 4.1 seconds (2×) and 26.0 seconds and 0.3 seconds (2×) and 4.0 seconds (2×) and 8.0 seconds and 3.5 seconds and 12.0 seconds and 16.9 seconds and 89.0 seconds and 6.4 seconds
O=C(O)CCC(CP(=O)(O)CN1C(=O)c2ccccc2C1=O)C(=O)O (stereo not shown) | 7.47 | –
O=C(O)CCC(CP(=O)(O)CNC(=O)c1ccccc1)C(=O)O (stereo not shown) | 6.85 | –

Compound | pKi (NAALADase) | further results
CC(=O)NCP(=O)(O)CC(CCC(=O)O)C(=O)O (stereo not shown) | 6.93 | –
O=C(O)C(Cc1ccccc1)CP(=O)(O)O (stereo not shown) | 6.26 | –
O=C(O)CCC(CP(=O)(O)CNC(=S)Nc1ccccc1)C(=O)O (stereo not shown) | 7.12 | –
CCCCC(S)CC(CCC(=O)O)C(=O)O (stereo not shown) [2-(2-sulfanylhexyl)pentanedioic acid] | 5.32 | –
Cc1ccc(NCP(=O)(O)CC(CCC(=O)O)C(=O)O)cc1 (stereo not shown) | 8.30 | –
O=C(O)CCC(CP(=O)(O)Cc1ccc(OCc2ccccc2)cc1)C(=O)O (stereo not shown) | 6.75 | –
CC(CS)C(CCC(=O)O)C(=O)O (stereo not shown) [2-(1-methyl-2-sulfanylethyl)penanedioic acid] | 6.07 | –
O=C(O)CCC(CP(=O)(O)C(NCc1ccccc1)c1ccccc1)C(=O)O (stereo not shown) | 6.50 | –
O=C(O)CC(CP(=O)(O)O)C(=O)O (stereo not shown) [2-(phosphonomethyl) succinic acid] | 6.15 | –
O=C(O)CCC(CP(=O)(O)CNS(=O)(=O)c1ccccc1)C(=O)O (stereo not shown) | 7.05 | –
O=C(O)CCC(CP(=O)(O)c1ccc(F)cc1)C(=O)O (stereo not shown) | 6.27 | –
CC(CP(=O)(O)CC(CCC(=O)O)C(=O)O)C(=O)OCc1ccccc1 (stereo not shown) | 7.02 | –
Cc1ccc(P(=O)(O)CC(CCC(=O)O)C(=O)O)cc1 (stereo not shown) | 6.69 | –
O=C(O)CCC(CP(=O)(O)Cc1c(F)c(F)c(F)c(F)c1F)C(=O)O (stereo not shown) [Compound 2, 2-[[(2,3,4,5,6-pentafluorobenzyl)hydroxyphosphinyl]methyl]pentanedioic acid] | – | Latency to Cross, Acquisition Trial, MEAN ([1]; Compound 2 100 mg/kg IP group, first study (animals 31-45), day prior to dosing): 6.7 s; Latency to Cross, Acquisition Trial, individual animals ([1]; Compound 2 100 mg/kg IP group, first study (animals 31-45), day prior to dosing, 100 mg/kg): 4.0 seconds and 0.1 seconds (2×) and 14.9 seconds and 5.0 seconds and 6.4 seconds and 9.5 seconds and 4.6 seconds and 5.7 seconds and 13.0 seconds and 5.1 seconds and 6.2 seconds and 10.1 seconds and 4.3 seconds and 11.4 seconds; Latency to Cross, Acquisition Trial, MEAN ([1]; Compound 2 100 mg/kg IP group, second study (animals 103-414), day prior to dosing): 7.5 s; Latency to Cross, Acquisition Trial, individual animals ([1]; Compound 2 100 mg/kg IP group, second study (animals 103-414), day prior to dosing, 100 mg/kg): 0.0 s and 11.4 s and 12.1 s and 1.5 s and 1.6 s and 7.0 s and 6.8 s and 20.0 s and 2.3 s and 0.6 s and 9.6 s and 3.2 s and 10.4 s and 5.7 s and 18.7 s; Latency to Cross, Retention Trial, MEAN ([1]; Compound 2 100 mg/kg IP, first study (animals 31-45), significance difference compared to Group 1, p ≦ 0.05): 66.8^a seconds; Latency to Cross, Retention Trial, individual animals ([1]; Compound 2 100 mg/kg IP, first study (animals 31-45), stimulus about 100 seconds, 100 mg/kg): 9.8 seconds and 7.1 seconds and 4.8 seconds and 100.0 seconds (8×) and 88.4 seconds and 7.8 seconds and 15.8 seconds and 68.4 seconds; Latency to Cross, Retention Trial, MEAN ([1]; Compound 2 100 mg/kg IP, second study (animals 103-414), animal 406 omitted): 29.6 s; Latency to Cross, Retention Trial, individual animals ([1]; Compound 2 100 mg/kg IP, second study (animals 103-414), animal 406 omitted from statistical analysis, 100 mg/kg): 3.1 seconds and 33.9 seconds and 100.0 seconds (2×) and 13.2 seconds and 6.6 seconds and 39.4 seconds and 7.9 seconds and 33.2 seconds and 8.4 seconds and 41.5 seconds and 19.5 seconds and 7.3 seconds and 100.0^b seconds and 0.3 seconds; anxiolytic properties in passive avoidance ([1]; Example 14): exhibit anxiolytic properties; performance compared with flurazepam in passive avoidance ([1]; Example 14): performed better than the known anxiolytic agent, flurazepam
O=C(O)CCC(CP(=O)(O)CCCc1ccccc1)C(=O)O (stereo not shown) | 6.63 | –
O=C(O)CCC(CP(=O)(O)C(NC(=O)O)c1ccccc1)C(=O)O (stereo not shown) | 5.70 | –
O=C(O)CCC(CP(=O)(O)Cc1ccccc1F)C(=O)O (stereo not shown) | 6.84 | –
Cc1cccc(P(=O)(O)CC(CCC(=O)O)C(=O)O)c1 (stereo not shown) | 6.74 | –
O=C(O)CCC(CP(=O)(O)Cc1cccc(C(F)(F)F)c1)C(=O)O (stereo not shown) | 7.66 | –
O=C(O)CCC(CP(=O)(O)CCc1ccccc1)C(=O)O (stereo not shown) | 6.83 | –
O=C(O)CCC(CP(=O)(O)Cc1ccc(F)cc1)C(=O)O (stereo not shown) | 7.15 | –
O=C(O)CCC(CP(=O)(O)CC(CCC(=O)O)C(=O)O)C(=O)O (stereo not shown) | 9.22 | –
CCC(CS)C(CCC(=O)O)C(=O)O (stereo not shown) [2-(1-ethyl-2-sulfanylethyl)pentanedioic acid] | 5.81 | –
O=C(O)CCC(CP(=O)(O)Cc1ccccc1)C(=O)O (stereo not shown) | 7.28 | –
O=C(O)CCC(CC(S)c1cccc2ccccc12)C(=O)O (stereo not shown) | 5.00 | –
CC(CS)CC(CCC(=O)O)C(=O)O (mixture of isomers) [2-(3-sulfanyl-2-methylpropyl)pentanedioic acid] | 6.62 | –
